This assay has as its target CFTR-mediated chloride transport (Homo sapiens, UniProt P13569). It counts as cell-based. Particulars: enteroid cells incubated with test compound 18-24 hours, acute 10 μM forskolin and 300 nM Compound III; for Max. Activity: % of chloride transport with 3 μM Compound A, 3 μM Compound II and 300 nM acute Compound III triple combination control. The method, boiled down:
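Membrane-potential fluorescence AUC over 15 min quantified CFTR chloride transport after acute forskolin (10 μM), IBMX (100 μM) and Compound III (300 nM) in chloride-free buffer. Human enteroid cells were pretreated with compound for 18–24 h; % Activity is relative to 3 μM Compound A + 3 μM Compound II + 300 nM Compound III.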

A value given as a limit tells only on which side of the number the result lay.

Chain of CFTR-mediated chloride transport (P13569 whole entry, looked up): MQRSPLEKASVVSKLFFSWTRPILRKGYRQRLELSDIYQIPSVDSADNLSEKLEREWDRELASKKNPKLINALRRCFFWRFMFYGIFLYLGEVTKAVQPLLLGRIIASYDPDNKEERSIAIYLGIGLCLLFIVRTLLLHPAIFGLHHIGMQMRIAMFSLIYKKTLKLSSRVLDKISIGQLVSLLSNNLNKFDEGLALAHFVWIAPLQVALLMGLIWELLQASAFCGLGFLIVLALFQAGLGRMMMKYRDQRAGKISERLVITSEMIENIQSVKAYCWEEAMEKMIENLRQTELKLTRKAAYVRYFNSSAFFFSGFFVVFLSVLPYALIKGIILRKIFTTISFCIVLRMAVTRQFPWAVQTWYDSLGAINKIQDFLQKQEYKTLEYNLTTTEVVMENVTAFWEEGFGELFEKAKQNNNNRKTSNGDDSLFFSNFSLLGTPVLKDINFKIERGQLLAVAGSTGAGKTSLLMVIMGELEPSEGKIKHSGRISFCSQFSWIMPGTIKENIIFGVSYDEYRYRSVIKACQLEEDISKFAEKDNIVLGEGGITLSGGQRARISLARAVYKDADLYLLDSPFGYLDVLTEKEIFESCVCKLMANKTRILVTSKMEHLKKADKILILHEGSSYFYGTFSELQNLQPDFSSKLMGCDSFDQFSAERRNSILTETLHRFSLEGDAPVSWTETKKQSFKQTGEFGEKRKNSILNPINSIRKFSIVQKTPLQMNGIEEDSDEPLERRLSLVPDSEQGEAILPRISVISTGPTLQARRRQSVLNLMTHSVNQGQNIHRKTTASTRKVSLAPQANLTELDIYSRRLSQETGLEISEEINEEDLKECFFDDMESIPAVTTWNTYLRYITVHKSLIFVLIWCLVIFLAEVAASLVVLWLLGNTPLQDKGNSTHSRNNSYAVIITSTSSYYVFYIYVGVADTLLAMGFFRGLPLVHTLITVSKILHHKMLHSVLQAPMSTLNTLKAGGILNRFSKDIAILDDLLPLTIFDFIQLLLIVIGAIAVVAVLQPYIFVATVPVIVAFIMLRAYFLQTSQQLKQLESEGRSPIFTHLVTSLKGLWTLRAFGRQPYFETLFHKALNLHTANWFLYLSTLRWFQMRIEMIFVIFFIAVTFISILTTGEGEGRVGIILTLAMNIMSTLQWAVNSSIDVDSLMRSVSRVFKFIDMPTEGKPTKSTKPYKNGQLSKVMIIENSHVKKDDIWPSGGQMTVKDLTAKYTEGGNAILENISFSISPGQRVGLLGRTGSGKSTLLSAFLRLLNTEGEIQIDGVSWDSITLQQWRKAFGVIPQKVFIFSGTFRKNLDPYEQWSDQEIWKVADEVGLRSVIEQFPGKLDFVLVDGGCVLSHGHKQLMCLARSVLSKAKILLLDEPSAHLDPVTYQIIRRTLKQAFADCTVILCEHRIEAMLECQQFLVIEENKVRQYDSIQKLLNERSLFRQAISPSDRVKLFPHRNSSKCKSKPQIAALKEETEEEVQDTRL

As to `Cc1c2cnn1CCC[C@@H]1CN(c3nc(-n4ccc(OCCC5(C(F)(F)F)CC5)n4)ccc3C(=O)NS2(=O)=O)C(C)(C)C1` (single isomer, unassigned) [Compound 111], the EC50 is below 1000 nM and the “Max. Activity” value is “+++ (+++ is >60%)”.

For `Cc1c2cnn1CCC[C@@H]1CN(c3nc(-n4ccc(OCCC5(C(F)(F)F)CC5)n4)ccc3C(=O)NS2(=O)=O)C(C)(C)C1` (single isomer, unassigned) [Compound 113], the EC50 lay in the range of 1000 to 3000 nM and the “Max. Activity” value is “++ (++ is 30-60%)”.

With `Cc1ccc2nc1NCCC[C@H]1CN(c3nc(-n4ccc(OCCC5(C(F)(F)F)CC5)n4)ccc3C(=O)NS2(=O)=O)C(C)(C)C1` (single isomer, unassigned) [Compound 114, 12,12,20-trimethyl-8-(3-{2-[1-(trifluoromethyl)cyclopropyl]ethoxy}-1H-pyrazol-1-yl)-2λ^6-thia-3,9,11,18,23-pentaazatetracyclo[17.3.1.111,14.05,10]tetracosa-1(23),5(10),6,8,19,21-hexaene-2,2,4-trione], the EC50 was above 3000 nM and the “Max. Activity” value is recorded as “+ (+ is <30%)”.

For `Cc1ccc2nc1NCCC[C@H]1CN(c3nc(-n4ccc(OCCC5(C(F)(F)F)CC5)n4)ccc3C(=O)NS2(=O)=O)C(C)(C)C1` (single isomer, unassigned) [Compound 115, 12,12,20-trimethyl-8-(3-{2-[1-(trifluoromethyl)cyclopropyl]ethoxy}-1H-pyrazol-1-yl)-2λ^6-thia-3,9,11,18,23-pentaazatetracyclo[17.3.1.111,14.05,10]tetracosa-1(23),5(10),6,8,19,21-hexaene-2,2,4-trione], the EC50 is below 1000 nM and the “Max. Activity” value was “+++ (+++ is >60%)”.

Take `CC1(C)CC[C@H]2CCNc3cccc(n3)S(=O)(=O)NC(=O)c3ccc(-n4ccc(OCCC5(C(F)(F)F)CC5)n4)nc3N21` (single isomer, unassigned) [Compound 116, 8,8-Dimethyl-12-(3-{2-[1-(trifluoromethyl)cyclopropyl]ethoxy}-1H-pyrazol-1-yl)-18λ^6-thia-2,9,11,17,23-pentaazatetracyclo[17.3.1.05,9.010,15]tricosa-1(23),10(15),11,13,19,21-hexaene-16,18,18-trione]: the EC50 is below 1000 nM and the “Max. Activity” value is given as “++ (++ is 30-60%)”.

As for `CC1(C)CC[C@H]2CCNc3cccc(n3)S(=O)(=O)NC(=O)c3ccc(-n4ccc(OCCC5(C(F)(F)F)CC5)n4)nc3N21` (single isomer, unassigned) [Compound 117, 8,8-dimethyl-12-(3-{2-[1-(trifluoromethyl)cyclopropyl]ethoxy}-1H-pyrazol-1-yl)-18λ^6-thia-2,9,11,17,23-pentaazatetracyclo[17.3.1.05,9.010,15]tricosa-1(23),10(15),11,13,19,21-hexaene-16,18,18-trione], the EC50 was below 1000 nM and the “Max. Activity” value is “++ (++ is 30-60%)”.

Consider `CC1(C)C[C@H]2CCCn3cc(cn3)S(=O)(=O)NC(=O)c3ccc(-n4ccc(OCCC5(C(F)(F)F)CC5)n4)nc3N1C2` (single isomer, unassigned) [Compound 118, 20,20-Dimethyl-4-(3-{2-[1-(trifluoromethyl)cyclopropyl]ethoxy}-1H-pyrazol-1-yl)-10λ^6-thia-1,3,9,13,14-pentaazatetracyclo[16.2.1.111,14.02,7]docosa-2,4,6,11(22),12-pentaene-8,10,10-trione], for which the EC50 was in the range of 1000 to 3000 nM and the “Max. Activity” value is reported as “+ (+ is <30%)”.

With `CC1(C)C[C@H]2CCCn3cc(cn3)S(=O)(=O)NC(=O)c3ccc(-n4ccc(OCCC5(C(F)(F)F)CC5)n4)nc3N1C2` (single isomer, unassigned) [Compound 119, 20,20-dimethyl-4-(3-{2-[1-(trifluoromethyl)cyclopropyl]ethoxy}-1H-pyrazol-1-yl)-10λ^6-thia-1,3,9,13,14-pentaazatetracyclo[16.2.1.111,14.02,7]docosa-2,4,6,11(22),12-pentaene-8,10,10-trione], the EC50 is below 1000 nM and the “Max. Activity” value is “+++ (+++ is >60%)”.

With `CC1(C)C[C@H]2CCCCNc3ccc(cn3)S(=O)(=O)NC(=O)c3ccc(-n4ccc(OCC5C6(CC6)C56CC6)n4)nc3N1C2` (single isomer, unassigned) [Compound 120, 8-[3-({dispiro[2.0.2.1]heptan-7-yl}methoxy)-1H-pyrazol-1-yl]-12,12-dimethyl-2λ^6-thia-3,9,11,19,21-pentaazatetracyclo[18.2.2.111,14.05,10]pentacosa-1(23),5,7,9,20(24),21-hexaene-2,2,4-trione], the EC50 was below 1000 nM and the “Max. Activity” value is “++ (++ is 30-60%)”.

As for `CC1(C)C[C@H]2CCCCNc3ccc(cn3)S(=O)(=O)NC(=O)c3ccc(-n4ccc(OCC5C6(CC6)C56CC6)n4)nc3N1C2` (single isomer, unassigned) [Compound 121, 8-[3-({dispiro[2.0.2.1]heptan-7-yl}methoxy)-1H-pyrazol-1-yl]-12,12-dimethyl-2λ^6-thia-3,9,11,19,21-pentaazatetracyclo[18.2.2.111,14.05,10]pentacosa-1(23),5,7,9,20(24),21-hexaene-2,2,4-trione], the EC50 was below 1000 nM and the “Max. Activity” value is reported as “+++ (+++ is >60%)”.

As to `CC1(C)CC[C@H]2CCCNc3cccc(n3)S(=O)(=O)NC(=O)c3ccc(-n4ccc(OCC5C6(CC6)C56CC6)n4)nc3N21` (single isomer, unassigned) [Compound 124, 8-[3-({dispiro[2.0.2.1]heptan-7-yl}methoxy)-1H-pyrazol-1-yl]-12,12-dimethyl-2λ^6-thia-3,9,11,19,24-pentaazatetracyclo[18.3.1.05,10.011,15]tetracosa-1(23),5(10),6,8,20(24),21-hexaene-2,2,4-trione], the EC50 is below 1000 nM and the “Max. Activity” value is reported as “+++ (+++ is >60%)”.

Turning to `CC1(C)CC[C@H]2CCCNc3cccc(n3)S(=O)(=O)NC(=O)c3ccc(-n4ccc(OCC5C6(CC6)C56CC6)n4)nc3N21` (single isomer, unassigned) [Compound 125, 8-[3-({Dispiro[2.0.2.1]heptan-7-yl}methoxy)-1H-pyrazol-1-yl]-12,12-dimethyl-2λ^6-thia-3,9,11,19,24-pentaazatetracyclo[18.3.1.05,10.011,15]tetracosa-1(23),5(10),6,8,20(24),21-hexaene-2,2,4-trione], the EC50 was below 1000 nM and the “Max. Activity” value was “+ (+ is <30%)”.

Regarding `CC(C)(C)CC[C@H]1CCN(c2ccc3c(n2)N2C[C@@H](CCCNc4cccc(n4)S(=O)(=O)NC3=O)CC2(C)C)C1=O` (single isomer, unassigned) [Compound 126], the 50% effective concentration (EC50) is below 1000 nM and the “Max. Activity” value was “++ (++ is 30-60%)”.

Regarding `CC(C)(C)CC[C@H]1CCN(c2ccc3c(n2)N2C[C@@H](CCCNc4cccc(n4)S(=O)(=O)NC3=O)CC2(C)C)C1=O` (single isomer, unassigned) [Compound 127], the EC50 is below 1000 nM and the “Max. Activity” value is on record as “+++ (+++ is >60%)”.

`CC1(C)C[C@H]2CCCCn3cc(cn3)S(=O)(=O)NC(=O)c3ccc(-n4ccc(OCCC5(C(F)(F)F)CC5)n4)nc3N1C2` (single isomer, unassigned) [Compound 134, 21,21-Dimethyl-4-(3-{2-[1-(trifluoromethyl)cyclopropyl]ethoxy}-1H-pyrazol-1-yl)-10λ^6-thia-1,3,9,13,14-pentaazatetracyclo[17.2.1.111,14.02,7]tricosa-2,4,6,11(23),12-pentaene-8,10,10-trione]: the EC50 is below 1000 nM and the “Max. Activity” value is on record as “+ (+ is <30%)”.

In the case of `CC1(C)C[C@H]2CCCCn3cc(cn3)S(=O)(=O)NC(=O)c3ccc(-n4ccc(OCCC5(C(F)(F)F)CC5)n4)nc3N1C2` (single isomer, unassigned) [Compound 135, 21,21-dimethyl-4-(3-{2-[1-(trifluoromethyl)cyclopropyl]ethoxy}-1H-pyrazol-1-yl)-10λ^6-thia-1,3,9,13,14-pentaazatetracyclo[17.2.1.111,14.02,7]tricosa-2,4,6,11(23),12-pentaene-8,10,10-trione], the EC50 was below 1000 nM and the “Max. Activity” value is “+++ (+++ is >60%)”.

Regarding `CC1(C)CC[C@H]2CCCNc3cccc(n3)S(=O)(=O)NC(=O)c3ccc(-n4ccc(OCCC(C5CC5)C5CC5)n4)nc3N21` (single isomer, unassigned) [Compound 136, 8-[3-(3,3-dicyclopropylpropoxy)-1H-pyrazol-1-yl]-12,12-dimethyl-2λ^6-thia-3,9,11,19,24-pentaazatetracyclo[18.3.1.05,10.011,15]tetracosa-1(23),5(10),6,8,20(24),21-hexaene-2,2,4-trione], the EC50 is below 1000 nM and the “Max. Activity” value is “+++ (+++ is >60%)”.

Take `CC1(C)CC[C@H]2CCCNc3cccc(n3)S(=O)(=O)NC(=O)c3ccc(-n4ccc(OCCC(C5CC5)C5CC5)n4)nc3N21` (single isomer, unassigned) [Compound 137, 8-[3-(3,3-Dicyclopropylpropoxy)-1H-pyrazol-1-yl]-12,12-dimethyl-2λ^6-thia-3,9,11,19,24-pentaazatetracyclo[18.3.1.05,10.011,15]tetracosa-1(23),5(10),6,8,20(24),21-hexaene-2,2,4-trione]: the EC50 was above 3000 nM and the “Max. Activity” value is “+ (+ is <30%)”.

Regarding `CN1CCC[C@H]2CN(c3nc(-n4ccc(OCCC5(C(F)(F)F)CC5)n4)ccc3C(=O)NS(=O)(=O)c3cccc1n3)C(C)(C)C2` (single isomer, unassigned) [Compound 138, 12,12,18-Trimethyl-8-(3-{2-[1-(trifluoromethyl)cyclopropyl]ethoxy}-1H-pyrazol-1-yl)-2λ^6-thia-3,9,11,18,23-pentaazatetracyclo[17.3.1.111,14.05,10]tetracosa-1(23),5(10),6,8,19,21-hexaene-2,2,4-trione], the EC50 was above 3000 nM and the “Max. Activity” value was “+ (+ is <30%)”.

For the origin of these results see patent US11866450B2, “Modulators of Cystic Fibrosis Transmembrane Conductance regulator, pharmaceutical compositions, methods of treatment, and process for making the modulators” (priority 2018, dated 2024).
